Literature values, collected in article PMC9669016, “First-in-human phase Ia study of the PI3Kα inhibitor CYH33 in patients with solid tumors” (Nature Communications, 2022).
Several values for one entry are separate records, joined by “and”; a condition that tells them apart may be missing. Identical values can stand only once.

Assays:
[1] = system: patients with PIK3CA-mutated HR+/HER2– breast cancer / PIK3CA-altered solid tumors; details: cited from earlier work
[2] = system: KYSE410, KYSE510, EC104, EC063, EC074 xenograft models; design: method as in Investigator's Brochure (IB) 12; details: 12.5 mg/kg; 9 values for 5 models, model column not assignable; ref Investigator's Brochure (IB) 12; listed as BYL-719; cited from earlier work

Cc1nc(NC(=O)N2CCC[C@H]2C(N)=O)sc1-c1ccnc(C(C)(C)C(F)(F)F)c1 [alpelisib]
frequency of diarrhea [1]: 57.7% | incidence of rash [1]: 64.0% | improvement in median overall survival ([1]; phase III SOLAR-1, alpelisib plus fulvestrant vs fulvestrant plus placebo, advanced PIK3CA-mutated HR+/HER2– breast cancer): 7.9 month | incidence of rash with prophylactic anti-rash medication ([1]; within the first 4–8 weeks of treatment): 24.6% | T/C% (tumor/control ratio) [2]: 29.09% and 47.62%
